In patent US6730655B2, “Biphenyl diquaternary ammonium compounds” (Ciba Specialty Chemicals Corporation, priority 2000, dated 2004):

Tests used:
[1] = tested on: Escherichia coli NCTC 8196; details: Mueller Hinton agar, 2 days at 37° C.
Source text: (§1) Determination of the Minimum Inhibitory Concentration (MIC Value)
(§2) The procedure to determine the antimicrobial activity of the compounds of the invention is as follows:
(§3) Casein/soybean flour peptone bouillon for the preparation of pre-cultures of the test bacteria and yeast.
(§4) Mueller Hinton agar for determining the MIC value of bacteria.
(§5) deionised water or EtOH as solvent.
(§6) The test substances are predissolved in deionised water or in ethanol and incorporated in a dilution series in agar warmed to 47-50° C.
(§7) Bacteria and yeast are incubated for from 18 to 24 hours at 37° C. in casein/soybean flour peptone bouillon.
(§8) All the test organisms are adjusted to an organism count of from 10^6 to 10^7 CFU/ml using 0.85% sodium chloride solution.
(§9) The organism suspensions are each pipetted in an amount of 10 μl onto an agar plate containing the test substance. The test batches are then incubated for 2 days at 37° C. (bacteria and yeast) or for 3 days at 28° C. (Aspergillus niger). In order to check the influence of the solvent used (deionised water, ethanol), organism suspensions are in addition incubated on agar plates without test substances (control plates).
(§10) After incubation, the growth of the microorganisms on the test substances is compared with the control plates. The minimum inhibitory concentration (MIC value) is the concentration of substance at which (compared with the control plates) a clear inhibition of growth of the test organisms is to be ascertained.
(§11) The microbiological data ascertained are compiled in Table 1.

[2] = tested on: Staphylococcus hominis DSM 20328; details: Mueller Hinton agar, 2 days at 37° C.
Source text: as §1, §2, §3, §4, §5, §6, §7, §8, §9, §10, §11

[3] = tested on: Candida albicans ATCC 10231; details: Sabouraud agar, 2 days at 37° C.
Source text: as §1, §2, §3
(§12) Sabouraud agar for determining the MIC value of Aspergillus niger and Candida albicans.
as §5, §6, §7, §8, §9, §10, §11

[4] = tested on: Aspergillus niger ATCC 6275; details: Sabouraud agar, 3 days at 28° C.
Description: as §1, §2
Sabouraud agar for the pre-culture of Aspergillus niger.
as §12, §5, §6
The mould is cultured on Sabouraud agar and rinsed off with 0.85% sodium chloride solution containing 0.01% Triton X-100.
as §8, §9, §10, §11

[5] = tested on: Staphylococcus aureus ATCC 6538; details: test substance 1600 ppm, contact time 5 minutes at 20° C., 0.3% bovine serum albumin
Description: Suspension Test to Determine the Bactericidal Activity in Accordance with the European Standard According to EN 1276
Staphylococcus aureus ATCC 6538.
5 minutes at 20° C. (+/−1° C.).
Inactivation Medium After the Contact Time
D/E neutralisation solution (Dey-Engley, consisting of 0.1% sodium thioglycolate,
0.5% Tween 80, and also 0.7% lecithin and sterile, deionised water ad 100%).
Casein/soybean flour peptone agar with lecithin, L-histidine, and Tween 80 as inactivating agent
(Merckoplate No. 18360, Merck-Darmstadt).
Incubation of the Test Plates
Precaration of the Pre-Culture
The bacteria cultures are cultured on casein/soybean flour peptone slant agar and incubated for from 18 to 24 hours at 37° C. They are then rinsed off with water and adjusted to a bacteria count of 1.5×10^8-5×10^8 CFU/ml.
All of the reagents required for the test are first equilibrated at 20° C. (+/−1° C.). 1.0 ml of 0.3% bovine serum albumin (in deionised water) is introduced into a test tube. After the addition of 1.0 ml of bacteria suspension (1.5×10^8-5×10^8 CFU/ml), the solution is mixed and maintained at 20° C. for 2 minutes (+/−10 seconds). 8.0 ml of the test substance (2000 ppm solution in water) are then added. The mixture is incubated for 5 minutes at 20° C. (+/−1° C.). […] After the period of incubation, the number of colonies is counted and quoted as a logarithmic reduction (log 10) of the bacteria.

SMILES	MIC values E. coli [1] [ppm]	MIC values S. hominis [2] [ppm]	MIC values C. albicans [3] [ppm]	MIC values A. niger [4] [ppm]	Logarithmic reduction Staphylococcus aureus [5] [log 10]
CCCCCC[N+](C)(C)Cc1ccc(-c2ccc(C[N+](C)(C)CCCCCC)cc2)cc1.[Cl-].[Cl-] [Compound of formula (2), 4,4′-Bis(N,N-dimethyl-N-hexyl-ammoniummethyl)biphenyl dichloride]	5	50	50	2.5	5.6
CCCCCCCC[N+](C)(C)Cc1ccc(-c2ccc(C[N+](C)(C)CCCCCCCC)cc2)cc1.[Cl-].[Cl-] [Compound of formula (3), 4,4′-Bis(N,N-dimethyl-N-octyl-ammoniummethyl)biphenyl dichloride]	1	5	10	2.5	5.6
CCCCCCCCCCCC[N+](C)(C)Cc1ccc(-c2ccc(C[N+](C)(C)CCCCCCCCCCCC)cc2)cc1.[Cl-].[Cl-] [Compound of formula (4), 4,4′-Bis(N,N-dimethyl-N-dodecyl-ammoniummethyl)biphenyl dichloride]	250	10	25	100	–
CCCCCCCCCCCCCCCC[N+](C)(C)Cc1ccc(-c2ccc(C[N+](C)(C)CCCCCCCCCCCCCCCC)cc2)cc1.[Cl-].[Cl-] [Compound of formula (5), 4,4′-Bis(N,N-dimethyl-N-hexadecyl-ammoniummethyl)biphenyl dichloride]	1000	100	500	1000	–
